Assay results: EP0431327B1, “Synthetic vaccine for the specific induction of cytotoxic T-lymphocytes” (HOECHST AKTIENGESELLSCHAFT, priority 1989, dated 1991)

Test system: Influenza-Virus A/PR/8
Test: Protection of immunised mice against intranasal influenza virus infection (survival, body weight)
Type: in vivo, BALB/c-Inzuchtmäuse
Procedure: Unter SPF-Bedingungen gezüchtete, 3 Monate alte BALB/c-Inzuchtmäuse wurden intravenös mit 100 µg Pam₃cys-Ser-Ser-[NP 147-158] immunisiert. (100 µg Pam₃Cys-Ser-Ser-[NP 147-158], aufgenommen in 300 µl PBS, 1 min beschallt). Nach 28 Tagen wurden die Mäuse mit 0,2 bzw. 0,4 haemagglutinierenden Einheiten Influenza-Virus A/PR/8 intranasal infiziert. Analog wurden zur Kontrolle Mäuse infiziert, denen 300 µl PBS intravenös appliziert wurde. Der Verlauf der Infektion wurde anhand von täglichen Gewichtskontrollen und der Überlebensrate kontrolliert. 11 von 12 Kontrolltieren, die mit 0,4 haemagglutinierenden Einheiten infiziert wurden, starben nach 11 Tagen an der Virusinfektion, während von den immunisierten Tieren nur 4 von 12 starben.
Eine weitere Kontrollgruppe und eine mit Pam₃Cys-Ser-Ser-[NP 147-158] immunisierte Gruppe wurden mit 0,2 haemagglutinierenden Einheiten Influenza-Virus infiziert. Nach 18 Tagen lebten noch 40 % der Kontrolltiere (4 von 10 Tieren), während 75 % der immunisierten Tiere lebten. Am Tag 18 betrug die Gewichtsdifferenz zwischen immunisierten Tieren und Kontrolltieren 4 g.

In the case of “N-Palmitoyl-S-[2,3-(bispalmitoyloxy)-propyl]cysteinyl-seryl-seryl-NP 147-158 [Pam₃Cys-Ser-Ser-[NP 147-158]]”, the “Verlauf der Infektion (Gewicht)” value (0,2 haemagglutinating units, after day 18, surviving controls kept losing weight) is reported as “langsam von der Infektion erholten”, the “Gewichtsdifferenz zwischen immunisierten Tieren und Kontrolltieren” value (0,2 haemagglutinating units, day 18) is reported as 4 g and the “immunisierte Tiere, die an der Virusinfektion starben” value (100 µg i.v. in 300 µl PBS, after 28 days infected intranasally with 0,4 haemagglutinating units, deaths after 11 days, PBS controls 11 von 12) is reported as 4 von 12. The “lebende immunisierte Tiere” value (immunised group infected with 0,2 haemagglutinating units, after 18 days, controls 40 %) was 75%.
